Laboratory results as given in patent US20230000852A1, “Treatment of Dermal Cytokine Storm Syndromes” (Bridge Pharma, Inc., priority 2021, published 2023).
Counter-ions that a name gives are not always drawn.

Experiments:
[1] = tested on: human leucocytes (buffy coats); experiment: Cytokine and chemokine release from stimulated human leucocytes, overall; assay type: cell-based; conditions: PHA 5 μg/ml, 16 hours
Protocol: (§1) The objective of this study was to assess the ability of norketotifen to inhibit cytokine release from stimulated human leucocytes.
The study was conducted in two phases. The first phase included optimization of the test methodology and including dose-range finding studies, using buffy coats from 3 human donors, stimulated with phytohemagglutinin (PHA). Following optimization of the test conditions, a final protocol was issued. In the ensuing Main Study, white blood cells (buffy coats) from 5 healthy human donors were stimulated with PHA, 5 μg/ml. The concentrations of the test article and the duration of exposure were optimized to obtain acceptable dose-response ratios. Thus, the inhibitory effects of three concentrations of NK and one concentration of ketotifen were evaluated in the Main Study. The buffy coats containing white blood cells from 5 male human donors were resuspended in assay media and were pre-incubated for 30 min with either vehicle/saline, ketotifen 4.3 μg/ml (10 μM) and norketotifen 0.4 μg/ml, 4.1 μg/ml and 41 μg/ml (1.0; 10 and 100 μM). Following these preincubations, the white blood cells were stimulated for 16 hours with PHA, 5 μg/ml. The cell system supernatants were then harvested and stored frozen pending analyses. […]

IL-13 = experiment: PHA-induced IL-13 release from human leucocytes (buffy coats); assay type: cell-based; conditions: Leucocyte, 10 uM, 30 min pre-incubation, PHA 5 μg/ml 16 hours
Protocol: as §1
(§2) The study was conducted in two phases. The first phase included optimization of the test methodology and including dose-range finding studies, using buffy coats from 3 human donors, stimulated with phytohemagglutinin (PHA). Following optimization of the test conditions, a final protocol was issued. In the ensuing Main Study, white blood cells (buffy coats) from 5 healthy human donors were stimulated with PHA, 5 μg/ml. The concentrations of the test article and the duration of exposure were optimized to obtain acceptable dose-response ratios. Thus, the inhibitory effects of three concentrations of NK and one concentration of ketotifen were evaluated in the Main Study. The buffy coats containing white blood cells from 5 male human donors were resuspended in assay media and were pre-incubated for 30 min with either vehicle/saline, ketotifen 4.3 μg/ml (10 μM) and norketotifen 0.4 μg/ml, 4.1 μg/ml and 41 μg/ml (1.0; 10 and 100 μM). Following these preincubations, the white blood cells were stimulated for 16 hours with PHA, 5 μg/ml. The cell system supernatants were then harvested and stored frozen pending analyses.
(§3) The concentration of the test articles had to be high in this ex vivo study since the test kit used a high concentration of the agonist PHA (5 μg/ml) and a long exposure time (16 hrs).

INF-γ = experiment: PHA-induced INF-γ release from human leucocytes (buffy coats); assay type: cell-based; conditions: Leucocyte, 10 uM, 30 min pre-incubation, PHA 5 μg/ml 16 hours
Protocol: as §1, §2, §3

IL-1β = experiment: PHA-induced IL-1β release from human leucocytes (buffy coats); assay type: cell-based; conditions: Leucocyte, 10 uM, 30 min pre-incubation, PHA 5 μg/ml 16 hours
Protocol: as §1, §2, §3

TNFα = experiment: PHA-induced TNFα release from human leucocytes (buffy coats); assay type: cell-based; conditions: Leucocyte, 10 uM, 30 min pre-incubation, PHA 5 μg/ml 16 hours
Protocol: as §1, §2, §3

IL-2 = experiment: PHA-induced IL-2 release from human leucocytes (buffy coats); assay type: cell-based; conditions: Leucocyte, 10 uM, 30 min pre-incubation, PHA 5 μg/ml 16 hours
Protocol: as §1, §2, §3

IL-6 = experiment: PHA-induced IL-6 release from human leucocytes (buffy coats); assay type: cell-based; conditions: Leucocyte, 10 uM, 30 min pre-incubation, PHA 5 μg/ml 16 hours
Protocol: as §1, §2, §3

IL-4 = experiment: PHA-induced IL-4 release from human leucocytes (buffy coats); assay type: cell-based; conditions: Leucocyte, 10 uM, 30 min pre-incubation, PHA 5 μg/ml 16 hours
Protocol: as §1, §2, §3

IL-10 = experiment: PHA-induced IL-10 release from human leucocytes (buffy coats); assay type: cell-based; conditions: Leucocyte, 10 uM, 30 min pre-incubation, PHA 5 μg/ml 16 hours
Protocol: as §1, §2, §3

IL-8 = experiment: PHA-induced IL-8 release from human leucocytes (buffy coats); assay type: cell-based; conditions: Leucocyte, 10 uM, 30 min pre-incubation, PHA 5 μg/ml 16 hours
Protocol: as §1, §2, §3

[2] = tested on: IL31-induced (SC) pruritus; experiment: IL-31-induced pruritus in mice; assay type: in vivo; conditions: for Pruritic Bouts Mean ± SEM: 10 mg/kg oral 60 minutes before murine IL31 1.0 μg/30 gram SC, counted for 120 min, N 8; for Protection: 10 mg/kg oral 60 minutes before murine IL31 SC, vs vehicle
Protocol: To determine if NK inhibits IL31-induced pruritus in mice. Studies have now been performed, using murine IL31 as a pruritogen. Mice were dosed orally with a test article exactly 60 minutes before murine IL31 at a dose of 1.0 μg/30 gram body weight was injected subcutaneously into a previously depilated area on the rostral part of the back of mice. IL31 was dissolved in phosphate buffered saline (PBS) with 0.1% bovine serum albumin (BSA). The injected volume was 0.1 ml/mouse. The bouts of scratching were counted for 120 min, starting 30 min after the injection of IL31. The bouts of scratching were counted by trained laboratory personnel who were unaware of the pretreatment of the animals. Oclacitinib (Apoquel®) is a Janus kinase inhibitor that is the worldwide market leader for oral treatment of atopic dermatitis in dogs.

[3] = tested on: shaved skin of Gottingen minipigs; experiment: Skin irritation study in Göttingen mini pigs; assay type: in vivo, Göttingen minipigs; conditions: dermal once daily for four consecutive days
Protocol: To assess possible skin irritation following repeated dermal application of racemic norketotifen as a hydrogen fumarate salt (NK-HF) to Gottingen Minipigs.
Standard creamy polyethylene-glycol (PEG400/PEG4000; herein called PEG) formulations containing 0% (vehicle control), 5% or 10% of RS-norketotifen hydrogen fumarate (NK-HF) were prepared and applied once daily for four consecutive days to three marked areas (3 inches×3 inches) of the shaved skin of Gottingen minipigs pigs (2M+2F, 7-8 months; 9.7-11.6 kg). The volumes used for each application were 3.5 mL). Four animals were used in this study. The number of animals was intended to satisfy regulatory guidelines, to meet general scientific principles and to meet Bridge Pharma's animal-sparing commitments. The vehicle and the test articles were applied once daily for four consecutive days, and erythema (redness), edema (swelling) and eschar (scab) were assessed by the Study Director, who personally assessed and scored the appearance of the skin before the daily cream applications and four hours thereafter on Days 1 through 4. Additional inspections and scorings were performed on Day 5, twenty-four hours after the last (Day 4) applications of the vehicle and test articles.

[4] = Dermal and plasma concentrations of NK after oral dosing to dogs; assay type: in vivo; conditions: for AUC∞ Plasma / MRT Plasma / T1/2 Plasma / AUC∞ Skin / MRT Skin / T1/2 Skin: oral S-NK 8.0 mg/kg/day for 28 days, dogs (N = 5)
Protocol: The purpose was to determine drug concentrations and calculate pharmacokinetics in the skin and plasma of dogs during and following daily oral administration of S-NK-HF (the S-isomer of norketotifen hydrogen fumarate) for four weeks.
Five male beagle dogs, weighing 11.2-13.9 kg (2-4 years old) were included in the study. All animals were administered p.o. doses of the test article 8.0 mg/kg/day as a hydrogen fumarate salt, equal to 5.6 mg/kg/day of the free base. A single isomer of NK was used, since an objective of this study was also to assess the racemization of the NK isomers. The animals were dosed once daily for four weeks followed by daily observations and tissue sampling for an additional two-week washout period.
Multiple plasma samples and skin biopsies were taken from each dog on Day 1 and Day 28 of drug administration. The plasma and skin samplings were performed at pre-dose, and at 2, 6, 12, and 24 hours post-dose. Plasma and skin samples were also taken intermittently at predetermined intervals during the 28-days dosing period and up to the last day of the study, which was Day 42. Blood samples were taken from v. cephalica antebrachii. Skin biopsies were taken from the area between the mid ventral to lateral abdominal areas, using a 6 mm skin biopsy punch. Subcutaneous fat deposits were carefully trimmed from the skin samples and the skin samples were then weighed. All plasma and skin samples were analyzed using LC/MS/MS methodology.

SMILES | Pruritic Bouts Mean ± SEM [2] | Protection [2] [%] | AUC∞ Plasma [4] | MRT Plasma [4] [h] | T1/2 Plasma [4] [h] | AUC∞ Skin [4] | MRT Skin [4] [h] | T1/2 Skin [4] [h] | further results
CN1CCC(=C2c3ccccc3CC(=O)c3sccc32)CC1 [Ketotifen, ketotifen, reference compound] | – | – | – | – | – | – | – | – | Inhibition of release of cytokines and chemokines from human white blood cells (in words) [1]: No statistically significant inhibition; inhibition at 10 µM (IL-13): 0%; inhibition at 10 µM (INF-γ): 0%; inhibition at 10 µM (IL-1β): 0%; inhibition at 10 µM (TNFα): 0%; inhibition at 10 µM (IL-2): 0%; inhibition at 10 µM (IL-6): 0%; inhibition at 10 µM (IL-4): 0%; inhibition at 10 µM (IL-10): 0%; inhibition at 10 µM (IL-8): 20%
O=C(O)C=CC(=O)O.O=C1Cc2ccccc2C(=C2CCNCC2)c2ccsc21 [NK-HF, RS-norketotifen hydrogen fumarate] | 93 ± 10 | 54 | – | – | – | – | – | – | Skin irritation (erythema, edema, eschar) ([3]; 5% in creamy PEG formulation): did not induce any irritation; Skin irritation (erythema, edema, eschar) ([3]; 10% in creamy PEG formulation): did not induce any irritation
O=C(O)/C=C/C(=O)O.O=C1Cc2ccccc2C(=C2CCNCC2)c2ccsc21 [R-NK, R-norketotifen] | – | – | 1658 ng*hr/mL or g | 14.1 | 7.7 | 20376 ng*hr/mL or g | 159.1 | 157.0 | –
CNS(=O)(=O)C[C@H]1CC[C@H](N(C)c2ncnc3[nH]ccc23)CC1 [Oclacitinib maleate, Oclacitinib, reference compound] | 116 ± 29 | 43 | – | – | – | – | – | – | –
O=C1Cc2ccccc2C(=C2CCNCC2)c2ccsc21 [S-NK, S-norketotifen] | – | – | 1627 ng*hr/mL or g | 11.3 | 10.9 | 25710 ng*hr/mL or g | 159.0 | 162.7 | Racemization after oral administration of the single isomer ([4]; dogs, oral): RS-norketotifen was rapidly formed
